Laboratory results as given in paper PMC10222454, “Characterization of the Molecular Diversity and Degranulation Activity of Mastoparan Family Peptides from Wasp Venoms” (Toxins, 2023).
Like-named read-outs stand apart in the source and are kept apart here. Ends that are not written are not given here.

What was measured:
RBL-2H3 cells = assay type: cell-based, rat; details: for degranulation activity of mutant compared with Protopolybia-MPIII, in words: mutants of Protopolybia-MPIII, Table 3
Method: (§1) RBL-2H3 cells (rat mucosal-type mast cell line) and P815 cells (mouse mast cell tumor cell line) were obtained from the BeNa Culture Collection (Xinyang, China). RBL-2H3 cells were cultured in DMEM (Gibco, Wuhan, China) supplemented with 15% FBS (Gibco), and P815 cells were maintained in RPMI 1640 basic medium supplemented with 10% FBS and antibiotics (100 mg/L streptomycin and 1 × 10^5 U/L penicillin) in a humidified atmosphere (5% CO2, 37 °C).
(§2) Degranulation was analyzed by measuring the release of the granule marker N-acetyl-D-glucosaminidase (β-hexosaminidase), which colocalizes with histamine, as described in [24]. For this, 2 × 10^5 P815 cells/mL or 1.5 × 10^5 RBL-2H3 cells/mL were seeded in 96-well cell culture plates. Twelve hours later, the cells were incubated with various concentrations of mastoparans dissolved in 100 μL HEPES buffer (137 mM NaCl, 2.7 mM KCl, 1 mM MgCl2, 1.8 mM CaCl2, 20 mM HEPES, 1 mg/mL BSA, and 1 mg/mL glucose, pH 7.4) for 15 min at 37 °C and 5% CO2. Then, the reactions were quenched by the addition of 0.15 mL of ice-cold HEPES buffer. After centrifugation, the supernatants were sampled for the β-hexosaminidase assay. Briefly, 50 μL samples of the cell culture supernatants and 50 μL of the substrate, 5 mM p-nitrophenyl-N-acetyl-b-D-glucosaminide (Sigma) in 0.2 M citrate, pH 4.5, were incubated in 96-well plates at 37 °C and 5% CO2 for 16–18 h to yield the chromophore p-nitrophenol, and the reactions were stopped by the addition of 100 μL of 0.2 M glycine solution, pH 10.7. The absorbance of the colored product was assessed at 405 nm using a microtiter plate reader. The values for β-hexosaminidase released in the medium are expressed as the percentage of total β-hexosaminidase, which was measured in the cells after lysis in 0.1% Triton X-100. The experiment was repeated three times, and the results represent the mean and standard deviation (SD) of quadruplicate tests. The percent degranulation was calculated according to the following equation:Degranulation Rate (%) = 100% × (Amastoparans − AHEPES)/(ATriton X-100 − AHEPES).
Statistical analysis was performed with GraphPad Prism software. The curve of mast cell degranulation induced by wasp mastoparans was generated in SigmaPlot 12.5 software, and the EC50 was calculated according to the following equation (Four-Parameter Logistic Curve): y = min + (max − min)/(1 + (x/EC50) […] Hillslope).

P815 cells = assay: Mast cell degranulation activity (β-hexosaminidase release) in P815 cells; assay type: cell-based, mouse
Method: as §1, §2

[1] = RBL-2H3 cells, 80 μg/mL peptide, 15 min at 37 °C, % of total β-hexosaminidase (0.1% Triton X-100 lysis)
[2] = P815 cells, 80 μg/mL peptide, 15 min at 37 °C, % of total β-hexosaminidase (0.1% Triton X-100 lysis)

Q: How did the EC50 (RBL-2H3 cells) turn out when “INWLKLGKAVIAAL-NH2 [Protopolybia-MP III-3]” was run?
A: 15.3 ± 3.53 µM

Q: How did the EC50 (RBL-2H3 cells; pH 7.4) turn out when INWLKLGKKILGAL-NH2 [PDD-B] was run?
A: 21.7 ± 3.78 µM

Q: For INWKKIKSIIKAAMN-NH2 [MP-V1], which EC50 (RBL-2H3 cells; pH 7.4) is on record?
A: 130 ± 46.6 µM

Q: With LNFKALAALAKKIL-NH2 [Pm-R2] as the compound, how does the EC50 (RBL-2H3 cells; pH 7.4) read?
A: 94.8 ± 73.5 µM

Q: Which EC50 (RBL-2H3 cells; pH 7.4) does the source give for FDLLGLVKSVVSAL-NH2 [EpVP2b] here?
A: 25.9 ± 2.88 µM

Q: INLKALAALVKKVL-NH2 [Mastoparan-II] was tested. Which EC50 (RBL-2H3 cells; pH 7.4) did it give?
A: 58.7 ± 24.8 µM

Q: How did the EC50 (RBL-2H3 cells; pH 7.4) turn out when INWKKMAATALKMI-NH2 [Parapolybia-MP] was run?
A: 89.4 ± 19.9 µM

Q: For INLKAIAALVKKVL-NH2 [HR1], which EC50 (RBL-2H3 cells; pH 7.4) is on record?
A: 48.8 ± 3.57 µM

Q: INWAKLGKLALQAL-NH2 [Ropalidia-MP] was tested. Which EC50 (RBL-2H3 cells; pH 7.4) did it give?
A: 33 ± 5.79 µM

Q: How did the “degranulation of RBL-2H3 / mast cells, in words” value (RBL-2H3 cells; RBL-2H3 cells) turn out when INMKAVAAVAKKPL-NH2 [Mastoparan-VB2] was run?
A: neither of them could induce the degranulation

Q: What about the “Degranulation at 80 μg/mL, RBL-2H3” value (RBL-2H3 cells; [1]) of the same compound?
A: 0%

Q: And the EC50 (RBL-2H3 cells; pH 7.4)?
A: > 200 µM

Q: And the “EC50 (μg/mL), RBL-2H3” value (RBL-2H3 cells; pH 7.4)?
A: >300 µg/mL

Q: What about the “Degranulation at 80 μg/mL, P815” value (P815 cells; [2]) of the same compound?
A: <20%

Q: Which results are given for LNLKGLIKKVASLLN-OH [Eumenitin-R]?
A: degranulation of RBL-2H3 / mast cells, in words (RBL-2H3 cells; RBL-2H3 cells): hardly induced mast cell degranulation; Degranulation at 80 μg/mL, RBL-2H3 (RBL-2H3 cells; [1]): 14%; EC50 (μg/mL), RBL-2H3 (RBL-2H3 cells; pH 7.4): >300 µg/mL; Degranulation at 80 μg/mL, P815 (P815 cells; [2]): <20%

Q: Which EC50 (RBL-2H3 cells; pH 7.4) does the source give for INWLKLGKQILGAL-NH2 [Pm-R3] here?
A: 7.6 ± 0.76 µM

Q: How did the “Degranulation at 80 μg/mL, RBL-2H3” value (RBL-2H3 cells) turn out when INLKAIAALAKKLL-NH2 [Mastoparan-M] was run?
A: 10%

Q: What about the EC50 (RBL-2H3 cells; pH 7.4) of the same compound?
A: > 200 µM

Q: And the “EC50 (μg/mL), RBL-2H3” value (RBL-2H3 cells; pH 7.4)?
A: >300 µg/mL

Q: What about the “Degranulation at 80 μg/mL, P815” value (P815 cells) of the same compound?
A: <20%

Q: Which EC50 (RBL-2H3 cells; pH 7.4) does the source give for IKWKAILDAVKKVL-NH2 [Mastoparan-A] here?
A: 28.4 ± 1.55 µM

Q: Which “degranulation of RBL-2H3 / mast cells, in words” value (RBL-2H3 cells; RBL-2H3 cells) does the source give for LNLKGIFKKVASLLT-OH [Eumenitin] here?
A: hardly induced mast cell degranulation

Q: What about the “Degranulation at 80 μg/mL, RBL-2H3” value (RBL-2H3 cells; [1]) of the same compound?
A: 8%

Q: And the “EC50 (μg/mL), RBL-2H3” value (RBL-2H3 cells; pH 7.4)?
A: >300 µg/mL

Q: And the “Degranulation at 80 μg/mL, P815” value (P815 cells; [2])?
A: <20%

Q: With INWKKIAEVGGKILSSL-NH2 [Dominulin A] as the compound, how does the “Degranulation at 80 μg/mL, RBL-2H3” value (RBL-2H3 cells; [1]) read?
A: 11%

Q: And the EC50 (RBL-2H3 cells; pH 7.4)?
A: > 200 µM

Q: And the “EC50 (μg/mL), RBL-2H3” value (RBL-2H3 cells; pH 7.4)?
A: >300 µg/mL

Q: And the “Degranulation at 80 μg/mL, P815” value (P815 cells; [2])?
A: <20%

Q: For INLFGFAALVKKFL-NH2 [Mastoparan-T4], which EC50 (RBL-2H3 cells; pH 7.4) is on record?
A: 18.2 ± 3.52 µM

Q: For “INWLKLGKKVIDAL-NH2 [Protopolybia-MP III-1]”, which EC50 (RBL-2H3 cells) is on record?
A: 98.4 ± 8.43 µM

Q: How did the “Degranulation at 80 μg/mL, RBL-2H3” value (RBL-2H3 cells; [1]) turn out when IDWLKLRVISVIDL-NH2 [Polybia-MPIV] was run?
A: 6%

Q: What about the EC50 (RBL-2H3 cells; pH 7.4) of the same compound?
A: > 200 µM

Q: What about the “EC50 (μg/mL), RBL-2H3” value (RBL-2H3 cells; pH 7.4) of the same compound?
A: >300 µg/mL

Q: What about the “Degranulation at 80 μg/mL, P815” value (P815 cells; [2]) of the same compound?
A: <20%

Q: How did the EC50 (RBL-2H3 cells; pH 7.4) turn out when INWKALLDAAKKVL-NH2 [Protonectarina-MP] was run?
A: 46.4 ± 3.1 µM

Q: `CC[C@H](C)[C@H](N)C(=O)N[C@@H](CC(N)=O)C(=O)N[C@@H](CC(C)C)C(=O)N[C@@H](CCCCN)C(=O)N[C@@H](C)C(=O)N[C@@H](CC(C)C)C(=O)N[C@@H](C)C(=O)N[C@@H](C)C(=O)N[C@@H](CC(C)C)C(=O)N[C@@H](C)C(=O)N[C@@H](CCCCN)C(=O)N[C@@H](CCCCN)C(=O)N[C@H](C(=O)N[C@@H](CC(C)C)C(N)=O)[C@@H](C)CC` [Mastoparan(-L), reference compound] was tested. Which EC50 (RBL-2H3 cells; pH 7.4) did it give?
A: 52.1 ± 3.21 µM

Q: How did the EC50 (RBL-2H3 cells) turn out when “INWLKLGKAVIAIL-NH2 [Protopolybia-MP III-10]” was run?
A: 8.39 ± 0.93 µM

Q: With FDVMGIIKKIASAL-NH2 [EMP-EF] as the compound, how does the EC50 (RBL-2H3 cells; pH 7.4) read?
A: 25.1 ± 1.59 µM

Q: INLKAIAAFAKKLL-NH2 [Mastoparan-T] was tested. Which EC50 (RBL-2H3 cells; pH 7.4) did it give?
A: 138 ± 68.4 µM

Q: For INWLKLGKKMMSAL-NH2 [MP], which EC50 (RBL-2H3 cells; pH 7.4) is on record?
A: 66.8 ± 30.7 µM

Q: How did the EC50 (RBL-2H3 cells) turn out when “INWLKLGKAVSAIL-NH2 [Protopolybia-MP III-11]” was run?
A: > 325 µM

Q: What about the “degranulation activity of mutant compared with Protopolybia-MPIII, in words” value (RBL-2H3 cells) of the same compound?
A: significantly decreased

Q: Which EC50 (RBL-2H3 cells) does the source give for “INWLKLGKKVIAIL-NH2 [Protopolybia-MP III-12]” here?
A: 47.7 ± 14.1 µM

Q: For INMKASAAVAKKLL-NH2 [Mastoparan-VB1], which “degranulation of RBL-2H3 / mast cells, in words” value (RBL-2H3 cells; RBL-2H3 cells) is on record?
A: neither of them could induce the degranulation

Q: What about the “Degranulation at 80 μg/mL, RBL-2H3” value (RBL-2H3 cells; [1]) of the same compound?
A: −1%

Q: And the EC50 (RBL-2H3 cells; pH 7.4)?
A: > 200 µM

Q: What about the “EC50 (μg/mL), RBL-2H3” value (RBL-2H3 cells; pH 7.4) of the same compound?
A: >300 µg/mL

Q: What about the “Degranulation at 80 μg/mL, P815” value (P815 cells; [2]) of the same compound?
A: <20%

Q: With INLKALLAVAKKIL-NH2 [Mastoparan-C] as the compound, how does the EC50 (RBL-2H3 cells; pH 7.4) read?
A: 32.6 ± 8.56 µM

Q: Which results are given for “INWLKLGKKVSAAL-NH2 [Protopolybia-MP III-14]”?
A: EC50 (RBL-2H3 cells): > 325 µM; EC50 (μg/mL), Protopolybia-MPIII and mutations (RBL-2H3 cells): >500 µg/mL; degranulation activity of mutant compared with Protopolybia-MPIII, in words (RBL-2H3 cells): almost lost

Q: How did the EC50 (RBL-2H3 cells; pH 7.4) turn out when INWLKLGKKILGAI-NH2 [Pm-R1] was run?
A: 22.9 ± 4.77 µM

Q: KDLHTVVSAILQAL-NH2 [OdVP3] was tested. Which “Degranulation at 80 μg/mL, RBL-2H3” value (RBL-2H3 cells; [1]) did it give?
A: 5%

Q: What about the EC50 (RBL-2H3 cells; pH 7.4) of the same compound?
A: > 200 µM

Q: And the “EC50 (μg/mL), RBL-2H3” value (RBL-2H3 cells; pH 7.4)?
A: >300 µg/mL

Q: What about the “Degranulation at 80 μg/mL, P815” value (P815 cells; [2]) of the same compound?
A: <20%

Q: Which results are given for INWKKIAEIGKQVLSAL-NH2 [Dominulin B]?
A: Degranulation at 80 μg/mL, RBL-2H3 (RBL-2H3 cells; [1]): 24%; EC50 (μg/mL), RBL-2H3 (RBL-2H3 cells; pH 7.4): 148.45 ± 51.31 µg/mL; Degranulation at 80 μg/mL, P815 (P815 cells; [2]): <20%
